Test results taken from patent US20240158446A1, “CYCLIC COMPOUND HAVING SELECTIVE INHIBITORY ACTION ON KRAS OVER HRAS AND NRAS” (CHUGAI SEIYAKU KABUSHIKI KAISHA, priority 2021, published 2024).
Read-outs that look alike come from different tables or passages of the source. Where a SMILES comes first, the peptide text is derived from it. Bridges are numbered along the chain shown (N, C = ends). [ ]: non-standard residue; d: D form. The star is where a group is joined. hPhe(3-Cl-4-CF3) = N[C@@H](CCc1ccc(C(F)(F)F)c(Cl)c1)C(=O)O; NEtPhe(4-CF3) = CCN[C@@H](Cc1ccc(C(F)(F)F)cc1)C(=O)O; NEtPhe(4-Me) = CCN[C@@H](Cc1ccc(C)cc1)C(=O)O; NMeGly(cPent) = CN[C@H](C(=O)O)C1CCCC1; NMeD = CN[C@@H](CC(=O)O)C(=O)O; NMeL = CN[C@@H](CC(C)C)C(=O)O; Morpholide = C1CN(*)CCO1; Ac5c = NC1(C(=O)O)CCCC1; NEtG = CCNCC(=O)O; Sar = CNCC(=O)O

Tests used:
[1] = molecular target: GDP-bound HRAS wild-type protein (Homo sapiens, UniProt P01112); assay: Binding to HRAS by surface plasmon resonance (SPR), Single Cycle Kinetics; conditions: for HRAS/KRAS (ratio of KD value for HRAS to KD value for KRAS) / HRAS/KRAS (ratio of KD value with respect to HRAS to KD value with respect to KRAS): SPR, GDP-bound HRAS wild-type protein vs GDP-bound KRAS wild-type protein
Chain of GDP-bound HRAS wild-type protein (P01112 whole entry): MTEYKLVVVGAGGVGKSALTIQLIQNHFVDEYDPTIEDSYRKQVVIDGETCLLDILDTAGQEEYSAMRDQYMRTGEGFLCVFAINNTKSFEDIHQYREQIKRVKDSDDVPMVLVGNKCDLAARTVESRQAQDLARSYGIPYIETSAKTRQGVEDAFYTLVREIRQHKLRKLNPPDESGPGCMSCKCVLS

[2] = molecular target: GDP-bound KRAS wild-type protein (Homo sapiens, UniProt P01116); assay: Binding to KRAS by surface plasmon resonance (SPR), Single Cycle Kinetics; conditions: GDP-bound KRAS wild-type protein, read-out: KRAS KD
Chain of GDP-bound KRAS wild-type protein (P01116 whole entry): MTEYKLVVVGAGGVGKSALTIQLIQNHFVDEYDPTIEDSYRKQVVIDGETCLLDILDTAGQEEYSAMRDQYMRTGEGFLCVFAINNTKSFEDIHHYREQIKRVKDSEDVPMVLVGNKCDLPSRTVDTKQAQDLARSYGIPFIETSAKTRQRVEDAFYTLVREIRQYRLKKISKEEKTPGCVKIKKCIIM

[3] = molecular target: GDP-bound NRAS wild-type protein (Homo sapiens, UniProt P01111); assay: Binding to NRAS by surface plasmon resonance (SPR), Single Cycle Kinetics; conditions: for NRAS/KRAS (ratio of KD value for NRAS to KD value for KRAS) / NRAS/KRAS (ratio of KD value with respect to NRAS to KD value with respect to KRAS): SPR, GDP-bound NRAS wild-type protein vs GDP-bound KRAS wild-type protein
Chain of GDP-bound NRAS wild-type protein (P01111 whole entry): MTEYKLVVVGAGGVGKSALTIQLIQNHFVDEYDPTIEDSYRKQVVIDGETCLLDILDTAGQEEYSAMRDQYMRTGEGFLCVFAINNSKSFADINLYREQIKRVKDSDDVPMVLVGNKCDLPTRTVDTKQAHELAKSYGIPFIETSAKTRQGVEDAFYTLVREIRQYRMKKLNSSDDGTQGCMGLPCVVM

[4] = SPR Single Cycle Kinetics, 1:1 binding model

| Structure (SMILES) | Kd ([2]; SPR, Single Cycle Kinetics) | Kd [2, 4] | HRAS/KRAS (ratio of KD value for HRAS to KD value for KRAS) [1] | NRAS/KRAS (ratio of KD value for NRAS to KD value for KRAS) [3] | further results |
| --- | --- | --- | --- | --- | --- |
| CCC[C@H]1C(=O)N[C@@H]([C@@H](C)CC)C(=O)N(C2CC2)CC(=O)N(C)[C@H]2C/C=C\CCN(C2=O)[C@@H](Cc2ccc(C(F)(F)F)cc2)C(=O)N(C)CC(=O)N[C@@H](CCc2ccc(C(F)(F)F)c(OC)c2)C(=O)N2C[C@H](OCC)C[C@H]2C(=O)N(C)C2(CCC2)C(=O)N(C)[C@@H](C2CCCC2)C(=O)N(C)[C@H](C(=O)N(C)C)CC(=O)N1C [PP2316, (2S,8S,12R,14S,20S,23S,27S,30S,36S,38Z)-20-cyclopentyl-32-cyclopropyl-12-ethoxy-8-[2-[3-methoxy-4-(trifluoromethyl)phenyl]ethyl]-N,N,4,16,19,22,26,35-octamethyl-30-[(1S)-1-methylpropyl]-3,6,9,15,18,21,25,28,31,34,42-undecaoxo-27-propyl-2-[[4-(trifluoromethyl)phenyl]methyl]spiro[1,4,7,10,16,19,22,26,29,32,35-undecazatricyclo[34.5.1.0^10,14]dotetracont-38-ene-17,1′-cyclobutane]-23-carboxamide] | 0.12 nM |  | A (a compound having 10 or more and less than 20 is denoted as A) | A (a compound having 10 or more and less than 20 is denoted as A) |  |
| CCC[C@H]1C(=O)N[C@@H]([C@@H](C)CC)C(=O)N(C2CC2)CC(=O)N(C)[C@H]2C/C=C\CCN(C2=O)[C@@H](CC2CCC(F)(F)CC2)C(=O)N(C)CC(=O)N[C@@H](CCc2ccc(C(F)(F)F)c(OC)c2)C(=O)N2C[C@H](OCC)C[C@H]2C(=O)N(C)C2(CCC2)C(=O)N(C)[C@@H](C2CCCC2)C(=O)N(C)[C@H](C(=O)N(C)C)CC(=O)N1C [PP2352] | 0.76 nM |  | A (a compound having 10 or more and less than 20 is denoted as A) | A (a compound having 10 or more and less than 20 is denoted as A) |  |
| C#CC[C@H]1C(=O)N[C@@H]([C@@H](C)CC)C(=O)N(C)CC(=O)N(C)[C@H]2C/C=C\CCN(C2=O)[C@@H](Cc2ccc(C(F)(F)F)cc2)C(=O)N(C)CC(=O)N[C@@H](CCc2ccc(Cl)c(Cl)c2)C(=O)N2C[C@H](OCC)C[C@H]2C(=O)NC2(CC(C)(C)C2)C(=O)N(C)[C@@H](C2CCCC2)C(=O)N(C)[C@H](C(=O)N(C)CC)CC(=O)N1C [PP2843] |  | 0.26 nM |  |  | HRAS/KRAS (ratio of KD value with respect to GDP-bound HRAS wild-type protein to KD value with respect to KRAS) ([1]; SPR KD ratio HRAS/KRAS, class symbols): A (a compound having 10 or more and less than 20 is denoted as A); NRAS/KRAS (ratio of KD value with respect to GDP-bound NRAS wild-type protein to KD value with respect to KRAS) ([3]; SPR KD ratio NRAS/KRAS, class symbols): A (a compound having 10 or more and less than 20 is denoted as A) |
| CC[C@H](C)[C@@H]1NC(=O)[C@@H]2CCCCCCc3ccc(cc3)C[C@@H](C(=O)N(C)CC(=O)N[C@@H](CCc3ccc(C(F)(F)F)c(OC)c3)C(=O)N3CC4(CC4)C[C@H]3C(=O)NC3(CC(C)(C)C3)C(=O)N(C)[C@@H](C3CCCC3)C(=O)N(C)[C@H](C(=O)N(C)C)CC(=O)N2C)N2CC/C=C\C[C@@H](C2=O)N(C)C(=O)CN(C)C1=O [PP3069] | 0.034 nM |  | B (a compound having 3 or more and less than 10 is denoted as B) | A (a compound having 10 or more and less than 20 is denoted as A) |  |
| CC[C@H](C)[C@@H]1NC(=O)[C@H](CC(C)C)N(C)C(=O)C[C@@H](C(=O)N2CCOCC2)N(C)C(=O)[C@H](C2CCCC2)N(C)C(=O)C2(CCCC2)NC(=O)[C@@H]2CCCN2C(=O)[C@H](CCc2ccc(C(F)(F)F)c(Cl)c2)NC(=O)CN(CC)C(=O)[C@H](Cc2ccc(C)cc2)N(CC)C(=O)CN(CC)C(=O)CN(C)C1=O [PP0030] ([NMeL]I[Sar][NEtG][NEtPhe(4-Me)][NEtG][hPhe(3-Cl-4-CF3)]P[Ac5c][NMeGly(cPent)][NMeD]-Morpholide; lactam N-11) |  | 7.7 nM | C (A compound having a KD ratio of 0.1 or more and less than 3 is denoted as C) | C (A compound having a KD ratio of 0.1 or more and less than 3 is denoted as C) |  |
| CCO[C@@H]1C[C@H]2C(=O)NC3(CCC3)C(=O)N(C)[C@@H](C(CC)CC)C(=O)N(C)[C@H](C(=O)N(C)C)CC(=O)N(C)[C@@H](CC3CCCC3)C(=O)N[C@@H]([C@@H](C)CC)C(=O)N(C)CC(=O)N(C)[C@H]3C/C=C\CCN(C3=O)[C@@H](Cc3ccc(F)cc3)C(=O)N(C)CC(=O)N[C@@H](CCc3cc(F)c(C(F)(F)F)c(F)c3)C(=O)N2C1 [PP1517] |  |  |  |  | HRAS/KRAS (ratio of KD value for HRAS to KD value for KRAS) ([1]; KD ratio class): A (a compound having 10 or more and less than 20 is denoted as A); Kd ([2]; SPR, Single Cycle Kinetics, 1:1 binding model): 0.43 nM; NRAS/KRAS (ratio of KD value for NRAS to KD value for KRAS) ([3]; KD ratio class): A (a compound having 10 or more and less than 20 is denoted as A) |

Now from value to compound, other results behind:

| Kd ([2]; SPR, Single Cycle Kinetics) | Kd [2, 4] | Structure (SMILES) | HRAS/KRAS (ratio of KD value for HRAS to KD value for KRAS) [1] | NRAS/KRAS (ratio of KD value for NRAS to KD value for KRAS) [3] | further results |
| --- | --- | --- | --- | --- | --- |
| 2 nM |  | CCO[C@@H]1C[C@H]2C(=O)NC3(CCC3)C(=O)N(C)[C@@H](C3CCCC3)C(=O)N(C)[C@H](C(=O)N(C)C)CC(=O)N(C)[C@@H](Cc3ccc(Cl)cc3)C(=O)N[C@@H]([C@@H](C)CC)C(=O)N(C)CC(=O)N(C)[C@H]3CCCCCN(C3=O)[C@@H](Cc3ccc(C(F)(F)F)cc3)C(=O)N(C)CC(=O)N[C@@H](CCc3cc(F)c(C(F)(F)F)c(F)c3)C(=O)N2C1 [PP0940] | C (A compound having a KD ratio of 0.1 or more and less than 3 is denoted as C) | B (a compound having 3 or more and less than 10 is denoted as B) |  |
|  | 0.42 nM | CC[C@H](C)[C@@H]1NC(=O)[C@H](CC)N(C)C(=O)C[C@@H](C(=O)N(C)C)N(CC)C(=O)[C@H](C2CCCC2)N(C)C(=O)C2(CCC2)NC(=O)[C@@H]2C[C@H](N3CCC(F)(F)CC3)CN2C(=O)[C@H](CCc2cc(F)c(C(F)(F)F)c(F)c2)NC(=O)CN(C)C(=O)[C@H](Cc2ccc(C(F)(F)F)cc2)N2CCCC[C@@H](C2=O)N(C)C(=O)CN(C)C1=O [PP0659] |  |  | HRAS/KRAS (ratio of KD value with respect to HRAS to KD value with respect to KRAS) [1]: B (a compound having 3 or more and less than 10 is denoted as B); NRAS/KRAS (ratio of KD value with respect to NRAS to KD value with respect to KRAS) [3]: B (a compound having 3 or more and less than 10 is denoted as B) |
|  | 1.1 nM | CC[C@H](C)[C@@H]1NC(=O)[C@H](CC(C)C)N(C)C(=O)C[C@@H](C(=O)N2CCOCC2)N(C)C(=O)[C@H](C2CCCC2)N(C)C(=O)C2(CCCC2)NC(=O)[C@@H]2CC(F)(F)CN2C(=O)[C@H](CCc2cc(F)c(C(F)(F)F)c(F)c2)NC(=O)CN(C)C(=O)[C@H](Cc2ccc(C(F)(F)F)cc2)N2CCCCC[C@@H](C2=O)N(C)C(=O)CN(C)C1=O [PP0491] |  |  | HRAS/KRAS (ratio of KD value with respect to HRAS to KD value with respect to KRAS) [1]: B (a compound having 3 or more and less than 10 is denoted as B); NRAS/KRAS (ratio of KD value with respect to NRAS to KD value with respect to KRAS) [3]: B (a compound having 3 or more and less than 10 is denoted as B) |
|  | 0.047 nM | CCO[C@@H]1C[C@H]2C(=O)NC3(CCC3)C(=O)N(C)[C@@H](C3CCCC3)C(=O)N(C)[C@H](C(=O)N3CCOCC3)CC(=O)N(C)[C@@H](CC(C)(C)C)C(=O)N[C@@H]([C@@H](C)CC)C(=O)N(C)CC(=O)N(C)[C@H]3CCCCN(C3=O)[C@@H](Cc3ccc(C(F)(F)F)cc3)C(=O)N(C)CC(=O)N[C@@H](CCc3cc(F)c(C(F)(F)F)c(F)c3)C(=O)N2C1 [PP0714] |  |  | HRAS/KRAS (ratio of KD value with respect to HRAS to KD value with respect to KRAS) [1]: B (a compound having 3 or more and less than 10 is denoted as B); NRAS/KRAS (ratio of KD value with respect to NRAS to KD value with respect to KRAS) [3]: C (A compound having a KD ratio of 0.1 or more and less than 3 is denoted as C) |
| 0.5 nM |  | CCO[C@@H]1C[C@H]2C(=O)NC3(CCC3)C(=O)N(C)[C@@H](C3CCCC3)C(=O)N(C)[C@H](C(=O)N3CCOCC3)CC(=O)N(C)[C@@H](CC(C)C)C(=O)N[C@@H]([C@@H](C)CC)C(=O)N(C)CC(=O)N(C)[C@H]3CCCCCN(C3=O)[C@@H](Cc3ccc(F)c(C)c3)C(=O)N(C)CC(=O)N[C@@H](CCc3cc(F)c(C(F)(F)F)c(F)c3)C(=O)N2C1 [PP0922] | B (a compound having 3 or more and less than 10 is denoted as B) | B (a compound having 3 or more and less than 10 is denoted as B) |  |
|  | 0.14 nM | CC[C@H](C)[C@@H]1NC(=O)[C@H](CC(C)C)N(C)C(=O)C[C@@H](C(=O)N2CCOCC2)N(C)C(=O)[C@H](C2CCCC2)N(C)C(=O)C2(CCCC2)NC(=O)[C@@H]2CCCN2C(=O)[C@H](CCc2ccc(C(F)(F)F)c(Cl)c2)NC(=O)CN(C)C(=O)[C@H](Cc2ccc(C(F)(F)F)cc2)N(CC)C(=O)CN(C)C(=O)CN(C)C1=O [PP0023] ([NMeL]I[Sar][Sar][NEtPhe(4-CF3)][Sar][hPhe(3-Cl-4-CF3)]P[Ac5c][NMeGly(cPent)][NMeD]-Morpholide; lactam N-11) | C (A compound having a KD ratio of 0.1 or more and less than 3 is denoted as C) | B (a compound having 3 or more and less than 10 is denoted as B) |  |
